From ChEMBL document CHEMBL5096181, “Isoxazole derivatives as anticancer agent: A review on synthetic strategies, mechanism of action and SAR studies” (Eur J Med Chem, 2021)
Values after ≈ are worked out from the molar mass of the structure shown.

Legend:
MCF7 [1] = assay: Cytotoxicity against human MCF7 cells assessed as cell growth inhibition and measured after 72 hrs by SRB assay; format: functional, cell-based; conditions: MCF7, 72 h
Huh-7 = assay: Cytotoxicity against human Huh-7 cells assessed as cell growth inhibition and measured after 72 hrs by SRB assay; format: functional, cell-based; conditions: Huh-7, 72 h
Mahlavu = assay: Cytotoxicity against human Mahlavu cells assessed as cell growth inhibition and measured after 72 hrs by SRB assay; format: functional, cell-based
MCF7 [2] = assay: Cytotoxicity against human MCF7 cells assessed as cell growth inhibition by MTT assay; format: functional, cell-based
MCF7 [3] = assay: Anticancer activity against human MCF7 cells assessed as inhibition of cell proliferation measured after 4 hrs by MTT assay; format: functional, cell-based; conditions: MCF7, 4 h
CWR22R = assay: Antiproliferative activity against human 22Rv1 cells assessed as cell growth inhibition by MTT assay; format: functional, cell-based
[4] = target: T1, Tyrosine-protein phosphatase non-receptor type 2 (Homo sapiens, UniProt P17706); assay: Inhibition of TCPTP (unknown origin) by SpectraMax 340 microplate reader Analysis
T1 sequence (P17706 whole entry): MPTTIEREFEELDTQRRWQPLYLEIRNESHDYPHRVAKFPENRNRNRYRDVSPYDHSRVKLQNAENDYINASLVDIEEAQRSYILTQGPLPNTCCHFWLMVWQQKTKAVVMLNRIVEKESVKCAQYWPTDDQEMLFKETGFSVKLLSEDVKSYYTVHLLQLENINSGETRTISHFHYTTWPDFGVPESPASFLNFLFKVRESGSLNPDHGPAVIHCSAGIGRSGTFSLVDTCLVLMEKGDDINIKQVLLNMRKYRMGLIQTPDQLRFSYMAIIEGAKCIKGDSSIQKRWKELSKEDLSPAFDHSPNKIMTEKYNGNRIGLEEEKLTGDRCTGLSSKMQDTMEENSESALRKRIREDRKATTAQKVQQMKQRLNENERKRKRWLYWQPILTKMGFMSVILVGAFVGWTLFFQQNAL

[5] = target: T2, Tyrosine-protein phosphatase non-receptor type 1 (Homo sapiens, UniProt P18031); assay: Inhibition of PTP1B (unknown origin) by SpectraMax 340 microplate reader Analysis
T2 sequence (P18031 whole entry): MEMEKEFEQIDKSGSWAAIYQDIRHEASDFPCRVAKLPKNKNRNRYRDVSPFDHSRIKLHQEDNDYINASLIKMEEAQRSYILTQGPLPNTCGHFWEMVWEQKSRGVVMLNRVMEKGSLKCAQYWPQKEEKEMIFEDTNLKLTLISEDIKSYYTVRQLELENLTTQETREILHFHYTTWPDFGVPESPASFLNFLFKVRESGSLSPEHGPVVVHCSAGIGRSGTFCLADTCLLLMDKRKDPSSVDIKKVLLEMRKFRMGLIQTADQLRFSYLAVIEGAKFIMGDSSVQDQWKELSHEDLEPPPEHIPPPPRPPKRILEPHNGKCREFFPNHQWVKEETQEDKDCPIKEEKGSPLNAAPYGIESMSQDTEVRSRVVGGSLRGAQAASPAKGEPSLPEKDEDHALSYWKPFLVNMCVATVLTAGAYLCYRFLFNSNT

MCF7 [6] = assay: Antiproliferative activity against human MCF7 cells assessed as inhibition of cell growth measured after 48 hrs by SRB assay; format: functional, cell-based; conditions: MCF7, 48 h
DU-145 = assay: Cytotoxicity against human DU-145 cells assessed as inhibition of cell growth by MTT assay; format: functional, cell-based
Aromatase = target: T3, Aromatase (Homo sapiens, UniProt P11511); assay: Inhibition of human recombinant aromatase expressed in baculovirus insect cell using 7-methoxy-trifluoromethyl coumarin (MFC) as substrate preincubated for 10 mins followed by substrate addition and measured for 30 mins by fluorescence based assay
T3 sequence (P11511 whole entry): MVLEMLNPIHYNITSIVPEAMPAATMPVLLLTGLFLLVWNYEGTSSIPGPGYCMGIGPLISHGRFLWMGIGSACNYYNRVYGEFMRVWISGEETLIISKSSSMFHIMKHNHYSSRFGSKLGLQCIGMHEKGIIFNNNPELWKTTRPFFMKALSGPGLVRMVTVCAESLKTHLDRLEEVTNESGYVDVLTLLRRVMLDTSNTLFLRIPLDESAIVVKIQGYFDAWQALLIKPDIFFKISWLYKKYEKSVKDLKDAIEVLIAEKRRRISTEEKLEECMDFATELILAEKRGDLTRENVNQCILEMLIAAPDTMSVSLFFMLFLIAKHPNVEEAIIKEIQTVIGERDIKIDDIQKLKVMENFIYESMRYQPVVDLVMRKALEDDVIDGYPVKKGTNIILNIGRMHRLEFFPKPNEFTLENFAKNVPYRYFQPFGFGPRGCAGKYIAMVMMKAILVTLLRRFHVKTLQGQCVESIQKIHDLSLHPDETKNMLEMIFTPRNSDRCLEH

## FC(F)(F)c1ccc(CN2CCN(c3cc(-c4ccccc4)on3)CC2)cc1
MCF7 [1]
  IC50: 19.1 µM
Huh-7
  IC50: 17.1 µM
Mahlavu
  IC50: 14.1 µM

## COc1ccc(C2CC(c3c(-c4ccc([N+](=O)[O-])cc4)noc3C)=NN2C(N)=S)cc1 (centres undefined)
MCF7 [2]
  IC50: 4.48 µg/mL

## FC(F)(F)c1ccc(CN2CCN(c3cc(-c4ccc(Cl)cc4)on3)CC2)cc1
MCF7 [1]
  IC50: 14 µM
Huh-7
  IC50: 9.6 µM
Mahlavu
  IC50: 26.8 µM

## O=S(=O)(Nc1ccc(-c2cnoc2)cc1)c1ccc(Cl)cc1
MCF7 [1]
  IC50: 5.7 µM

## Nc1nn(Cc2cc(-c3ccc4ccccc4n3)no2)c2nc(-c3cccs3)cc(C(F)(F)F)c12
MCF7 [2]
  IC50: 31.6 µM

## COc1ccc(-c2cnoc2-c2ccc(OC)c3ccccc23)cc1
MCF7 [3]
  IC50: 2.03 µM

## Cc1noc(C)c1COc1ccc(-c2cc(N3CCN(Cc4ccc(C(F)(F)F)cc4)CC3)no2)cc1
MCF7 [1]
  IC50: 1.6 µM
Huh-7
  IC50: 1.2 µM
Mahlavu
  IC50: 2.2 µM

## COc1cc(N(C(=O)CSc2nc3ccccc3s2)c2ccncc2)cc(OC)c1OC
CWR22R
  IC50: 5.09 µM

## Oc1ccc(-c2cc(N3CCN(Cc4ccc(C(F)(F)F)cc4)CC3)no2)cc1
MCF7 [1]
  IC50: 8.3 µM
Huh-7
  IC50: 3.8 µM
Mahlavu
  IC50: 7.5 µM

## COc1ccc(-c2oncc2-c2ccc(Cl)cc2)c2ccccc12
MCF7 [3]
  IC50: 5.26 µM

## FC(F)(F)c1ccc(CN2CCN(c3cc(-c4ccc(C(F)(F)F)cc4)on3)CC2)cc1
MCF7 [1]
  IC50: 9.5 µM
Huh-7
  IC50: 19.9 µM
Mahlavu
  IC50: > 40 µM

## O=C(O)c1cccc(/C=C/c2ccc(Oc3cnoc3-c3ccc(Cl)c(Cl)c3)cc2)c1
[4]
  IC50: 3.78 µM
[5]
  IC50: 0.91 µM

## Cc1onc(-c2ccc([N+](=O)[O-])cc2)c1C1=NN(C(N)=S)C(c2cccs2)C1 (centres undefined)
MCF7 [2]
  IC50: 2.25 µg/mL

## COc1ccc(-c2cc(-c3c[nH]c4ccccc34)on2)cc1
MCF7 [6]
  IC50: 2.55 µM

## Cc1onc(-c2ccc([N+](=O)[O-])cc2)c1C1=NN(C(N)=S)C(c2ccc(Cl)cc2)C1 (centres undefined)
MCF7 [2]
  IC50: 5.42 µg/mL

## CC(=O)O[C@@]12CO[C@@H]1C[C@H](O)[C@@]1(C)C(=O)[C@H](O)C3=C(C)[C@@H](OC(=O)[C@H](O)[C@@H](NC(=O)OC(C)(C)C)c4ccccc4)C[C@@](O)([C@@H](OC(=O)c4ccccc4)[C@H]21)C3(C)C [DOCETAXEL ANHYDROUS]
DU-145
  IC50: 5 µg/mL (≈ 6.19 µM)

## C#Cc1cccc(Nc2ncnc3cc(OCCOC)c(OCCOC)cc23)c1 [ERLOTINIB]
MCF7 [1]
  IC50: 4.1 µM

## O=c1[nH]cc(F)c(=O)[nH]1 [FLUOROURACIL]
CWR22R
  IC50: 18.3 µM
Aromatase
  IC50: 0.63 µM
MCF7 [2]
  IC50: 1.7 µM

## C[C@H](CCC(=O)O)[C@H]1CC[C@H]2[C@@H]3CC[C@@H]4C[C@H](O)CC[C@]4(C)[C@H]3CC[C@]12C [LITHOCHOLIC ACID]
[4]
  IC50: 6.12 µM
[5]
  IC50: 2.71 µM

## CC(=O)O[C@H]1C(=O)[C@@]2(C)[C@H]([C@H](OC(=O)c3ccccc3)[C@]3(O)C[C@H](OC(=O)[C@H](O)[C@@H](NC(=O)c4ccccc4)c4ccccc4)C(C)=C1C3(C)C)[C@]1(OC(C)=O)CO[C@@H]1C[C@@H]2O [PACLITAXEL]
MCF7 [2]
  IC50: 0.015 µg/mL
